Assay results as given in patent US20060019329A1, “Method of screening for protein inhibitors and activators” (priority 1988, published 2006).

Columns and labels:
PKC = details: cell-free assay (O'Brian, et al, Cancer Res., 1985); cited from earlier work
[1] = system: R6-PKC5 cells (Rat 6 fibroblasts overproducing PKCbeta1); experiment: Growth in soft agar (anchorage independence), R6-PKC5; type: cell-based
Procedure: (§1) Cells were seeded at a density of 10^4/plate in a series of 60 mm plates, in 5 ml DMEM plus 10% CS. Twenty-four hours later, cells in triplicate plates were trypsinized and counted. This point was designated “day 0.” The remaining cultures were then grown in the respective medium (i.e. plus or minus 100 ng/ml TPA) with fresh medium changes twice per week. Cell counts per plate were then determined on triplicate plates during the remainder of the growth curve (FIG. 3). The results obtained were analyzed for exponential doubling time and saturation density (Table 2). To assess growth in soft agar (anchorage independence), 2×10^4 cells were suspended in 2 ml of 0.3% Bacto agar (Difco Laboratories, Detroit, Mich.) in DMEM containing 20% fetal calf serum (FCS) and overlayed above a layer of 5 ml of 0.5% agar in the same medium, on 60 mm petri dishes. The cells were then overlaid with DMEM plus 20% FCS every 4 days. At the end of 30 days, colonies were stained with the vital stain 2-(p-iodophenyl)-3-(p-nitrophenyl)-5-phenyltetrazolinium chloride hydrate (INT) (Sigma Chemical Co., St. Louis, Mo.) for 48 hours at 37° C., in an incubator with 5% CO2 (Schaeffer and Friend, 1976), and the number of colonies counted under low power on an inverted phase microscope. The data are expressed as “cloning efficiency”, i.e. number of colonies greater than 0.05 mm per plate X 100 divided by the number of cells originally seeded per plate.
(§2) I also assayed these cell lines for their ability to form colonies in soft agar, since with rodent cells the acquisition of anchorage-independent growth often correlates with tumorigenicity (Freedman and Shin, 1974).

[2] = system: cell lines overproducing PKC; experiment: Growth in agar of cell lines overproducing PKC (further screening of activators and inhibitors); type: cell-based, rat; details: for modulation of the growth of the cells: PKC-overproducing cell lines, known activators or inhibitor of PKC
Procedure: as §1
Additional compounds tested included the tumor promoters teleocidin, aplysiatoxin, and mezerein, all of which are known activators of PKC (O'Brian, et al., CSH, 1985).
Inhibition of the growth of the R6-PKC3 cells in agar in the presence of tamoxifen provided critical evidence that tamoxifen could inhibit PKC-mediated stimulation of cellular growth.

[3] = system: R6-PKC3 cells (Rat 6 fibroblasts overproducing PKCbeta1); experiment: Growth in soft agar (anchorage independence), R6-PKC3; type: cell-based
Procedure: as §1, §2

[4] = biological target: high affinity phorbol-ester binding sites (PKC); details: read-out: affinity constant (Kd) of phorbol ester binding; control cell line R6-C1; intact cells; Scatchard; approximately the same in both cell lines
Procedure: Cells were plated at 1×10^5 per 4 cm well on day 1, the medium was changed on day 2 and the cells then assayed on day 3. […] The plates were washed 3× with 4 ml ice-cold PBS. The cells were solubilized in 1 ml 1% SDS/10 mM DTT for 2 hrs at 37° C. The lysate was transferred to a scintillation vial and counted.

[5] = system: FDC-P1 cells overproducing PKC beta1; experiment: Morphologic response of FDC-P1 cells overproducing PKCbeta1 to PKC activators; type: cell-based; details: 100 nM TPA, after 12 hours
Procedure: Several cell lines were plated at 3×10E4 cells/ml and treated with 100 nM TPA. After 12 hours, representative fields were photographed. […] The latter clumps are easily visualized with standard cell stains such as Giemsa, and stain much darker than the corresponding control cells under these conditions.

R6-C1 control cells [6] = experiment: Growth in monolayer culture, control R6-C1; type: cell-based, rat; details: R6C1 (control), + TPA 100 ng/ml
Procedure: (§3) Cells were seeded at a density of 10^4/plate in a series of 60 mm plates, in 5 ml DMEM plus 10% CS. Twenty-four hours later, cells in triplicate plates were trypsinized and counted. This point was designated “day 0.” The remaining cultures were then grown in the respective medium (i.e. plus or minus 100 ng/ml TPA) with fresh medium changes twice per week. Cell counts per plate were then determined on triplicate plates during the remainder of the growth curve (FIG. 3). The results obtained were analyzed for exponential doubling time and saturation density (Table 2). To assess growth in soft agar (anchorage independence), 2×10^4 cells were suspended in 2 ml of 0.3% Bacto agar (Difco Laboratories, Detroit, Mich.) in DMEM containing 20% fetal calf serum (FCS) and overlayed above a layer of 5 ml of 0.5% agar in the same medium, on 60 mm petri dishes. […] At the end of 30 days, colonies were stained with the vital stain 2-(p-iodophenyl)-3-(p-nitrophenyl)-5-phenyltetrazolinium chloride hydrate (INT) (Sigma Chemical Co., St. Louis, Mo.) for 48 hours at 37° C., in an incubator with 5% CO2 (Schaeffer and Friend, 1976), and the number of colonies counted under low power on an inverted phase microscope. The data are expressed as “cloning efficiency”, i.e. number of colonies greater than 0.05 mm per plate X 100 divided by the number of cells originally seeded per plate. […]

R6-PKC3 cells [7] = experiment: Growth in monolayer culture, R6-PKC3; type: cell-based, rat
Procedure: as §1
It was also of interest to determine the growth rates of these cells in monolayer culture. Detailed growth curves were performed on R6-C1, R6-PKC3 and R6-PKC5 cells in 10% calf serum and DMEM medium, in the absence and presence of 100 ng/ml TPA.

R6-PKC5 cells [8] = experiment: Morphologic response to phorbol ester treatment, R6-PKC5; type: cell-based, rat
Procedure: (§4) FIG. 4. Morphologic Responses of the Cell Lines to Phorbol Ester Treatment. Nearly confluent cultures of the three indicated cell lines were exposed to 100 ng/ml TPA in 0.1% dimethylsulfoxide (DMSO) solvent (“+TPA”) or 0.1% DMSO alone (“−TPA”), in DMEM plus 10% CS. Photographs were taken 24 hours later (Panels A and D) and 48 hours later (Panels B and E). Fresh medium plus or minus TPA was then added and photographs were then taken an additional 24 hours later (Panels C and F). (Magnification: 100×).
(§5) All of the cell lines were then exposed to a second, fresh dose of TPA (100 ng/ml) and examined 24 hours later (FIG. 4, Panel F), i.e., 72 hours after the first dose of TPA.

R6-PKC5 cells [9] = experiment: Growth in monolayer culture, R6-PKC5; type: cell-based, rat; details: R6-PKC5 (test), + TPA 100 ng/ml
Procedure: as §3

R6-PKC3 cells [10] = experiment: Morphologic response to phorbol ester treatment, R6-PKC3; type: cell-based, rat
Procedure: as §4, §5

R6-C1 control cells [11] = experiment: Morphologic response to phorbol ester treatment, control R6-C1; type: cell-based, rat
Procedure: as §4, §5

[12] = system: R6-C1 control cells (Rat 6 fibroblasts with pMV7 alone); experiment: Growth in soft agar (anchorage independence), control R6-C1; type: cell-based
Procedure: as §3

[13] = initial exponential phase, DMEM plus 10% CS
[14] = 24 hours after second 100 ng/ml dose (72 hours after first)
[15] = R6-PKC5 (test), + TPA 100 ng/ml, 0.3% agar
[16] = R6-PKC3 (test), + TPA 100 ng/ml, 0.3% agar

CC/C(=C(\c1ccccc1)c1ccc(OCCN(C)C)cc1)c1ccccc1 [Tamoxifen, tamoxifen]
effect on PKC enzyme activity (PKC): inhibits PKC enzyme activity | Effic. of Growth In Agar (%) ([1]; R6-PKC5, inhibitor 5 μM): 19% | Effic. of Growth In Agar (%) ([1]; R6-PKC5, inhibitor 20 μM): 17% | Effic. of Growth In Agar (%) ([1]; R6-PKC5, inhibitor 50 μM): 8% | Effic. of Growth In Agar (%) ([1]; R6-PKC5, inhibitor 100 μM): 0% | Effic. of Growth In Agar (%) ([1]; R6-PKC5, inhibitor 200 μM): 0% | inhibition of growth in agar ([2]; all of the cell lines overproducing PKC): completely inhibiting the growth in agar | Effic. of Growth In Agar (%) ([3]; R6-PKC3, inhibitor 5 μM): 27% | Effic. of Growth In Agar (%) ([3]; R6-PKC3, inhibitor 20 μM): 22% | Effic. of Growth In Agar (%) ([3]; R6-PKC3, inhibitor 50 μM): 15% | Effic. of Growth In Agar (%) ([3]; R6-PKC3, inhibitor 100 μM): 6% | Effic. of Growth In Agar (%) ([3]; R6-PKC3, inhibitor 200 μM): 0%

CCCC(=O)O[C@@H]1[C@@H](C)[C@@]2(O)[C@@H](C=C(CO)C[C@]3(O)C(=O)C(C)=C[C@@H]23)[C@@H]2C(C)(C)[C@]12OC(=O)CCC [3H-PDBu]
Kd [4]: 16 nM

CCCCCCCCCCCCCC(=O)O[C@@H]1[C@@H](C)[C@@]2(O)[C@@H](C=C(CO)C[C@]3(O)C(=O)C(C)=C[C@@H]23)[C@@H]2C(C)(C)[C@]12OC(C)=O [TPA, 12-O-tetradecanoylphorbol-13-acetate]
morphologic changes [5]: profound morphologic changes | Monolayer Saturat. Density (R6-C1 control cells [6]; cells per 6 cm plate on day 11): 4.2 × 10^6 | Monolayer Doubling Time (R6-C1 control cells [6]; [13]): 24.6 h | Monolayer Saturat. Density (R6-PKC3 cells [7]; R6-PKC3 (test), + TPA 100 ng/ml, cells per 6 cm plate on day 11): 10.0 × 10^6 | Monolayer Doubling Time (R6-PKC3 cells [7]; R6-PKC3 (test), + TPA 100 ng/ml, initial exponential phase, DMEM plus 10% CS): 21.5 h | cell density when maintained in TPA for a longer period (R6-PKC3 cells [7]; R6-PKC3, monolayer, longer period in presence of TPA, cells detach from plate): showed a decline in cell density | morphologic changes after TPA compared with control (R6-PKC5 cells [8]; 24 hours after 100 ng/ml TPA): much more dramatic | morphologic response to second dose of TPA (R6-PKC5 cells [8]; [14]): only slight changes in morphology | morphology after TPA (R6-PKC5 cells [8]; 48 hours after 100 ng/ml TPA, to a lesser extent than R6-PKC3): continued to display an altered morphology | Agar Colony Size [1, 15]: 0.10-0.15 mm | Agar Effic. [1, 15]: 34.7% | colony sizes and cloning efficiencies in agar ([1]; R6-PKC5, TPA 100 ng/ml in agar medium): enhanced | Agar Colony Size [3, 16]: 0.15-0.35 mm | Agar Effic. [3, 16]: 29.7% | colony sizes and cloning efficiencies in agar ([3]; R6-PKC3, TPA 100 ng/ml in agar medium): enhanced | Monolayer Saturat. Density (R6-PKC5 cells [9]; cells per 6 cm plate on day 11): 7.0 × 10^6 | Monolayer Doubling Time (R6-PKC5 cells [9]; [13]): 22.9 h | morphology after TPA (R6-PKC3 cells [10]; 24 hours after 100 ng/ml TPA): very long cytoplasmic processes and numerous refractile cell bodies | morphologic response to second dose of TPA (R6-PKC3 cells [10]; [14]): continued to display their altered morphology as well as an increase in cell density | morphology after TPA (R6-PKC3 cells [10]; 48 hours after 100 ng/ml TPA): continued to display an altered morphology | morphology after TPA (R6-C1 control cells [11]; 24 hours after 100 ng/ml TPA): more elongated and dendritic cells and a criss-cross pattern | morphologic response to second dose of TPA (R6-C1 control cells [11]; [14]): failed to respond | morphology after TPA (R6-C1 control cells [11]; 48 hours after 100 ng/ml TPA): returned to its normal appearance | growth in agar ([12]; R6-C1, TPA 100 ng/ml in agar medium): still failed to grow in agar | Agar Effic. ([12]; R6C1 (control), + TPA 100 ng/ml, 0.3% agar): 0%

C=C(C)[C@@]12O[C@@]3(c4ccccc4)O[C@@H]1[C@@H]1[C@@H]4O[C@]4(CO)[C@@H](O)[C@]4(O)C(=O)C(C)=C[C@H]4[C@@]1(O3)[C@H](C)[C@H]2OC(=O)/C=C/C=C/c1ccccc1 [mezerein]
modulation of the growth of the cells [2]: modulated the growth of the cells in the expected manner

CO[C@@H](CC[C@H](C)[C@H]1O[C@@]23C[C@H](OC(=O)C[C@H]([C@@H](C)O)OC(=O)C[C@](O)(O2)[C@H](C)CC3(C)C)[C@@H]1C)c1cc(O)ccc1Br [aplysiatoxin]
modulation of the growth of the cells [2]: modulated the growth of the cells in the expected manner

CC1CNCCN1S(=O)(=O)c1cccc2cnccc12 (stereo not shown) [H-7, 1-(5-Isoquinolinesulfonyl)-2-methyl-piperazine]
Effic. of Growth In Agar (%) ([1]; R6-PKC5, inhibitor 2 μM): 21% | Effic. of Growth In Agar (%) ([1]; R6-PKC5, inhibitor 5 μM): 16% | Effic. of Growth In Agar (%) ([1]; R6-PKC5, inhibitor 10 μM): 4% | Effic. of Growth In Agar (%) ([1]; R6-PKC5, inhibitor 50 μM): 1% | Effic. of Growth In Agar (%) ([1]; R6-PKC5, inhibitor 100 μM): 0% | modulation of the growth of the cells [2]: modulated the growth of the cells in the expected manner | Effic. of Growth In Agar (%) ([3]; R6-PKC3, inhibitor 2 μM): 25% | Effic. of Growth In Agar (%) ([3]; R6-PKC3, inhibitor 5 μM): 22% | Effic. of Growth In Agar (%) ([3]; R6-PKC3, inhibitor 10 μM): 17% | Effic. of Growth In Agar (%) ([3]; R6-PKC3, inhibitor 50 μM): 4% | Effic. of Growth In Agar (%) ([3]; R6-PKC3, inhibitor 100 μM): 0%

teleocidin
modulation of the growth of the cells [2]: modulated the growth of the cells in the expected manner
